The source of these data is patent US20260306640A1, “TECHNOLOGIES TARGETING CELL STATES” (Auron Therapeutics, Inc., priority 2023, published 2026).

Usually DC50 stands for the concentration giving 50% degradation.

Common to all, as to type: cell-based
For assay [1], the target named is T1, KAT2A (Homo sapiens, UniProt Q92830). The assay is described as follows: KAT2A degradation, Western Blot (Jess), MOLM-13 cells. Set-up: degrader, Western blot. To be noted: MOLM-13 cells, KAT2A, 24 h, Western Blot, vs DMSO; read-out: KAT2A MOLM-13 DC50. The protocol:
MOLM-13 cells or NCI-H1048 cells were used for Western Blot analysis of KAT2A degradation. KAT2B degradation can be measured in a similar manner with NCI-H1048 cells.
MOLM-13 cells were maintained at 37° C. in 5% CO2 and 90% humidity in RPMI 1640 supplemented with 20% fetal bovine serum (FBS) and 1× penicillin/streptomycin. Cells were plated in full media at 1-2 million cells/2 mL in a 6-well tissue culture treated plate with or without compounds for 24 h at 37° C. in 5% CO2.
MOLM-13 cells or NCI-H1048 cells were washed with PBS, then lysed with RIPA buffer containing 1×protease and phosphatase inhibitors (SantaCruz Biotechnologies Cat #sc-24948A). Protein was isolated by centrifugation at 12,000×g for 10 minutes at 4° C. and supernatant was collected. Protein was quantified via Bradford assay. Samples were diluted to 4 μg lysate in 16 μL RIPA buffer and then 4 μL of Jess Sample Buffer. Samples were heated at 95° C. for 5 minutes. Samples were loaded onto 12-230 kDa Jess™ Separation Module, 8×25 capillary cartridges (SM-W004, Biotechne). Antibodies loaded were: Primary antibody for KAT2A (GCN5L2 (C26A10) Rabbit mAb (3305, CST)) and for KAT2B (PCAF (C14G9)) Rabbit mAb (3378, CST) at 1:1000 and Anti-Rabbit Detection Module for Jess™ (Cat No #DM-001, Biotechne). Signal was detected by chemiluminescence.
DC50 values were determined from percent reduction of protein as compared to the DMSO control.

A further assay has as its target KAT2B (Homo sapiens, UniProt Q92831). The assay is described as follows: KAT2B degradation, Western Blot (Jess), NCI-H1048 cells. Also on record: degrader, Western blot (Jess). To be noted: NCI-H1048 cells, KAT2B, 24 h, Western Blot, vs DMSO; read-out: KAT2B NCI-H1048 DC50. The procedure, abridged:
(§1)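 NCI-H1048 cells grown in HITES medium with 5% FBS were treated with compounds for 24 h at 37° C. Lysates were run by capillary Western (Jess) with KAT2A or KAT2B antibodies and chemiluminescent detection. DC50 derived from percent protein reduction versus DMSO control.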
On the technique in general: In western blotting, separated proteins are transferred to a membrane and probed.

For assay [2], the target named is T1, KAT2A. The assay is described as follows: KAT2A degradation, Western Blot (Jess), NCI-H1048 cells. Also on record: degrader, Western blot (Jess). The settings on record: NCI-H1048 cells, KAT2A, 24 h, Western Blot, vs DMSO; read-out: KAT2A NCI-H1048 DC50. An outline of the steps:
as §1

T1 sequence (Q92830 whole entry): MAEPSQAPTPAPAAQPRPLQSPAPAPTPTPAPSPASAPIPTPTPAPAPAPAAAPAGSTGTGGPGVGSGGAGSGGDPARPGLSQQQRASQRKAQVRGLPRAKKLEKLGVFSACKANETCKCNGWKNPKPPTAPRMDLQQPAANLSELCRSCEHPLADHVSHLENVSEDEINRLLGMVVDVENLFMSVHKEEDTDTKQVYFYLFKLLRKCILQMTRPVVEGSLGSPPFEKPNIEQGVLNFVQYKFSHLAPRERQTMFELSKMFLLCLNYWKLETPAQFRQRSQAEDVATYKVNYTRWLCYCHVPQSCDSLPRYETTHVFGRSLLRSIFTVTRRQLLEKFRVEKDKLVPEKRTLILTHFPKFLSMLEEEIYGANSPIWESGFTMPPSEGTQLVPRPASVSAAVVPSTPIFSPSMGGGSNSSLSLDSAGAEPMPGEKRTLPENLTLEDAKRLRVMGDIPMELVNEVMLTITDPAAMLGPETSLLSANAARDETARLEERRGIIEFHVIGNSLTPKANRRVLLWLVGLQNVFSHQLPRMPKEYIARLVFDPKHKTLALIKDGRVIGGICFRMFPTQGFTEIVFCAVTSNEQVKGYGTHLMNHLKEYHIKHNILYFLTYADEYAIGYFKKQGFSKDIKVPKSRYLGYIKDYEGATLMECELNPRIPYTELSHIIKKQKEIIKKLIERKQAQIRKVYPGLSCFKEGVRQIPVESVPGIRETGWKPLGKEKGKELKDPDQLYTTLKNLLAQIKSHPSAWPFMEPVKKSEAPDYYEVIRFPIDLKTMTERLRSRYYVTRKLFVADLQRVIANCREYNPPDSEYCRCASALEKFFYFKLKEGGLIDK
KAT2B, sequence (Q92831 whole entry): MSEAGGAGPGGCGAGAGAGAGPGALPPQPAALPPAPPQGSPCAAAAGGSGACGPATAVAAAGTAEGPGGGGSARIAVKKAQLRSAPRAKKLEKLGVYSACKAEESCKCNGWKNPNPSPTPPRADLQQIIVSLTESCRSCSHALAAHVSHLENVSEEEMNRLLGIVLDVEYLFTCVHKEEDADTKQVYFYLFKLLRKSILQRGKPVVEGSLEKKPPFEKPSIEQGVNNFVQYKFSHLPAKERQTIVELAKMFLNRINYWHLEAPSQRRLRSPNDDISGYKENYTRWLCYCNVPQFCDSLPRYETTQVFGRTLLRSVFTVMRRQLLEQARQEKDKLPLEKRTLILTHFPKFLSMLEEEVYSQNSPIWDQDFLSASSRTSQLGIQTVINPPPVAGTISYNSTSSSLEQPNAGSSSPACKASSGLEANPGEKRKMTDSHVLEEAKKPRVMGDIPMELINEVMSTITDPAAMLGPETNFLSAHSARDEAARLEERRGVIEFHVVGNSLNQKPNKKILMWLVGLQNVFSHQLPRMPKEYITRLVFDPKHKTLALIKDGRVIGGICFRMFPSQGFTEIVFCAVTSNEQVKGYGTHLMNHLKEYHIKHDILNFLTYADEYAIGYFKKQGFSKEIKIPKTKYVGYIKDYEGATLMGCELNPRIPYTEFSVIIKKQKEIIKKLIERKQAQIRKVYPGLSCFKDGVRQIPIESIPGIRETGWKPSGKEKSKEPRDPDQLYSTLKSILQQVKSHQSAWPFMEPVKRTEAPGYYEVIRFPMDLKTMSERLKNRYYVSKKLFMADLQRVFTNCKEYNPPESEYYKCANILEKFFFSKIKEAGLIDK

Take `CN1C[C@H](Nc2cnn(C)c(=O)c2Br)C[C@H](c2ccc(C(=O)N(C)c3ccc(Oc4cccc5c4C(=O)N(C4CCC(=O)NC4=O)C5=O)cc3)cc2)C1` (stereo partly shown) [Compound 1]: the half-maximal degradation concentration (DC50) at KAT2A [1] fell in the range of 1 to 30 nM.

Turning to `CN1C[C@H](Nc2cnn(C)c(=O)c2Br)C[C@H](c2ccc(C(=O)N(C)c3ccc(CCCOc4cccc5c4C(=O)N(C4CCC(=O)NC4=O)C5=O)cc3)cc2)C1` (stereo partly shown) [Compound 2], the DC50 at KAT2A [1] lay in the range of 1 to 30 nM.

Regarding `CN1C[C@H](Nc2cnn(C)c(=O)c2Br)C[C@H](c2ccc(C(=O)NCCCCCCCCCC(=O)Nc3ccc4c(c3)CN(C3CCC(=O)NC3=O)C4=O)cc2)C1` (stereo partly shown) [Compound 3], the DC50 on KAT2A [1] was less than 1 nM.

Take `CN1C[C@H](Nc2cnn(C)c(=O)c2Br)C[C@H](c2ccc(C(=O)NCCOCC(=O)Nc3ccc4c(c3)CN(C3CCC(=O)NC3=O)C4=O)cc2)C1` (stereo partly shown) [Compound 4]: the DC50 on KAT2A [1] was more than 30 nM.

Regarding `CN1C[C@H](Nc2cnn(C)c(=O)c2Br)C[C@H](c2ccc(C(=O)N3CCC(C#CC(=O)Nc4ccc5c(c4)CN(C4CCC(=O)NC4=O)C5=O)CC3)cc2)C1` (stereo partly shown) [Compound 5], the DC50 at KAT2A [1] is 1 to 30 nM.

Take `CN1C[C@H](Nc2cnn(C)c(=O)c2Br)C[C@H](c2ccc(C(=O)N3CCN(Cc4ccc(C(=O)Nc5cccc6c5C(=O)N(C5CCC(=O)NC5=O)C6=O)cc4)CC3)cc2)C1` (stereo partly shown) [Compound 6]: at KAT2A [1], the half-maximal degradation concentration (DC50) is less than 1 nM.

Consider `CN1C[C@H](Nc2cnn(C)c(=O)c2Br)C[C@H](c2ccc(C(=O)N3CCN(CCOCCC(=O)Nc4cccc5c4C(=O)N(C4CCC(=O)NC4=O)C5=O)CC3)cc2)C1` (stereo partly shown) [Compound 7], for which the DC50 at KAT2A [1] fell in the range of 1 to 30 nM.

In the case of `CN1C[C@H](Nc2cnn(C)c(=O)c2Br)C[C@H](c2ccc(C(=O)N(C)CCCCC#CCCCOc3cccc4c3C(=O)N(C3CCC(=O)NC3=O)C4=O)cc2)C1` (stereo partly shown) [Compound 8], on KAT2A [1], the DC50 is 1 to 30 nM.

On to `CN1C[C@H](Nc2cnn(C)c(=O)c2Br)C[C@H](c2ccc(C(=O)N3CCN(CC4CCN(c5cccc6c5C(=O)N(C5CCC(=O)NC5=O)C6=O)CC4)CC3)cc2)C1` (stereo partly shown) [Compound 9], for which the DC50 at KAT2A [1] was less than 1 nM.

Take `CN1C[C@H](Nc2cnn(C)c(=O)c2Br)C[C@H](c2ccc(C(=O)N3CCC(C(=O)N4CCN(c5cccc6c5C(=O)N(C5CCC(=O)NC5=O)C6=O)CC4)CC3)cc2)C1` (stereo partly shown) [Compound 10]: on KAT2A [1], the DC50 lay within 1 to 30 nM.

On to `CN1C[C@H](Nc2cnn(C)c(=O)c2Br)C[C@H](c2ccc(C(=O)NCCCCCCOCCOCC(=O)Nc3cccc4c3C(=O)N(C3CCC(=O)NC3=O)C4=O)cc2)C1` (stereo partly shown) [Compound 12], for which, at KAT2A [1], the DC50 was 1 to 30 nM.

In the case of `Cn1ncc(N[C@@H]2C[C@H](c3ccc(C(=O)N4CCC5(CC4)CCN(c4ccc(C6CCC(=O)NC6=O)cc4)CC5)cc3)CN(C3CC3)C2)c(Br)c1=O` (stereo partly drawn) [Compound 424, 3-(4-(9-(4-((3R,5R)-5-((5-bromo-1-methyl-6-oxo-1,6-dihydropyridazin-4-yl)amino)-1-cyclopropylpiperidin-3-yl)benzoyl)-3,9-diazaspiro[5.5]undecan-3-yl)phenyl)piperidine-2,6-dione], the DC50 at KAT2B and on KAT2A [2] was more than 30 nM in each case.

Regarding `Cn1ncc(N[C@@H]2C[C@H](c3ccc(C(=O)N4CCC5(CC4)CCN(c4ccc(C6CCC(=O)NC6=O)cc4)CC5)cc3)CN(CC3CC3)C2)c(Br)c1=O` (stereo partly drawn) [Compound 425, 3-[4-[3-[4-[(3R,5R)-5-[(5-bromo-1-methyl-6-oxo-pyridazin-4-yl)amino]-1-(cyclopropylmethyl)-3-piperidyl]benzoyl]-3,9-diazaspiro[5.5]undecan-9-yl]phenyl]piperidine-2,6-dione], the DC50 on KAT2B and at KAT2A [2] was less than 1 nM throughout.

With `CN1C[C@H](Nc2nc3cc[nH]c3c(=O)n2C)C[C@H](c2ccc(C(=O)N3CCC4(CC3)CCN(c3ccc(C5CCC(=O)NC5=O)cc3)CC4)cc2)C1` (stereo partly drawn) [Compound 427, 3-(4-(9-(4-((3R,5R)-1-methyl-5-((3-methyl-4-oxo-4,5-dihydro-3H-pyrrolo[3,2-d]pyrimidin-2-yl)amino)piperidin-3-yl)benzoyl)-3,9-diazaspiro[5.5]undecan-3-yl)phenyl)piperidine-2,6-dione], the DC50 on KAT2B and on KAT2A [2] was less than 1 nM each time.

In the case of `C[C@H](Nc1nn(C)c(=O)c2cccnc12)[C@H](c1ccc(C(=O)N2CCC3(CC2)CCN(c2ccc(C4CCC(=O)NC4=O)cc2)CC3)cc1)N(C)C` (stereo partly drawn) [Compound 429, 3-(4-(9-(4-((1S,2S)-1-(dimethylamino)-2-((6-methyl-5-oxo-5,6-dihydropyrido[2,3-d]pyridazin-8-yl)amino)propyl)benzoyl)-3,9-diazaspiro[5.5]undecan-3-yl)phenyl)piperidine-2,6-dione], the results for the 50% degradation concentration (DC50) on KAT2B and at KAT2A [2] were 1 to 30 nM and less than 1 nM, respectively.

In the case of `C[C@H](Nc1nn(C)c(=O)c2ncccc12)[C@H](c1ccc(C(=O)N2CCC3(CC2)CCN(c2ccc(C4CCC(=O)NC4=O)cc2)CC3)cc1)N(C)C` (stereo partly drawn) [Compound 430, 3-(4-(9-(4-((1S,2S)-1-(dimethylamino)-2-((7-methyl-8-oxo-7,8-dihydropyrido[2,3-d]pyridazin-5-yl)amino)propyl)benzoyl)-3,9-diazaspiro[5.5]undecan-3-yl)phenyl)-piperidine-2,6-dione], the DC50 on KAT2B was more than 30 nM; on KAT2A [2], less than 1 nM.

For `C[C@H](Nc1nn(C)c(=O)c2ccccc12)[C@H](c1ccc(C(=O)N2CCC3(CC2)CCN(c2ccc(C4CCC(=O)NC4=O)cc2)CC3)cc1)N(C)C` (stereo partly drawn) [Compound 432, 3-(4-(9-(4-((1S,2S)-1-(dimethylamino)-2-((3-methyl-4-oxo-3,4-dihydro-phthalazin-1-yl)amino)propyl)benzoyl)-3,9-diazaspiro[5.5]undecan-3-yl)phenyl)piperid-ine-2,6-dione], the figures for the DC50 at KAT2B and at KAT2A [2] were more than 30 nM and less than 1 nM, respectively.

As for `CN1C[C@H](Nc2cnn(C)c(=O)c2Br)C[C@H](c2ccc(COc3ccc4c(=O)n(C5CCC(=O)NC5=O)ccc4c3)cc2)C1` (stereo partly drawn) [Compound 433, 3-(6-((4-((3R,5R)-5-((5-bromo-1-methyl-6-oxo-1,6-dihydropyridazin-4-yl)amino)-1-methylpiperidin-3-yl)benzyl)oxy)-1-oxoisoquinolin-2(1H)-yl)piperidine-2,6-dione], the DC50 on KAT2B is 1 to 30 nM; on KAT2A [2], less than 1 nM.

In the case of `CN1C[C@H](Nc2cnn(C)c(=O)c2Br)C[C@H](c2ccc(N3CCC(Oc4cccc(C5CCC(=O)NC5=O)c4)CC3)cc2)C1` (stereo partly drawn) [Compound 434, 3-(3-((1-(4-((3R,5R)-5-((5-bromo-1-methyl-6-oxo-1,6-dihydropyridazin-4-yl)amino)-1-methylpiperidin-3-yl)phenyl)piperidin-4-yl)oxy)phenyl)piperidine-2,6-dione], the DC50 at KAT2B and at KAT2A [2] was less than 1 nM in each case.

In the case of `CN1C[C@H](Nc2cnn(C)c(=O)c2Br)C[C@H](c2ccc(CN3CCN(c4cccc(OC5CCC(=O)NC5=O)c4)CC3)cc2)C1` (stereo partly drawn) [Compound 435, 3-(3-(4-(4-((3R,5R)-5-((5-bromo-1-methyl-6-oxo-1,6-dihydropyridazin-4-yl)amino)-1-methylpiperidin-3-yl)benzyl)piperazin-1-yl)phenoxy)piperidine-2,6-dione], the half-maximal degradation concentration (DC50) on KAT2B and at KAT2A [2] was more than 30 nM each time.

With `Cc1cc(N2CCC3(CCN(c4ccc([C@H]5C[C@@H](Nc6cnn(C)c(=O)c6Br)CN(C)C5)cc4)CC3)CC2)ccc1C1CCC(=O)NC1=O` (stereo partly drawn) [Compound 436, 3-(4-(9-(4-((3R,5R)-5-((5-bromo-1-methyl-6-oxo-1,6-dihydropyridazin-4-yl)amino)-1-methylpiperidin-3-yl)phenyl)-3,9-diazaspiro[5.5]undecan-3-yl)-2-methylphenyl)piperidine-2,6-dione], the DC50 on KAT2B was 1 to 30 nM; at KAT2A [2] it was less than 1 nM.
